Assay results as given in the NIST ThermoML archive (doi:10.1016/j.jct.2012.04.016).
Numbers after ± are expanded uncertainties.

Conditions: Liquid; Ebulliometric method (Recirculating still)

SMILES	Normal boiling temperature [°C]
Cc1ccc(C)c(C)c1 [1,2,4-trimethylbenzene]	169.30 ± 0.22
O=CN1CCOCC1 [N-formylmorpholine]	240.0 ± 0.21
CCCCc1ccccc1 [butylbenzene]	183.2 ± 0.22
CCc1ccccc1 [ethylbenzene]	136.20 ± 0.21
CC(C)c1ccccc1 [isopropylbenzene]	152.40 ± 0.22
